Data on 7 compounds can be found in patent publication US10731222B2 (RNA Diagnostics Inc., priority 2013, dated 2020).

In data set [1] the test system is Colon adenocarcinoma cells LS174T. Description: RNA disruption in colon adenocarcinoma cells LS174T. Particulars: 24 hr. The format is cell-based. As for the experimental part: Colon adenocarcinoma cells LS174T were incubated with Sunitinib, a receptor tyrosine kinase inhibitor. RNA was isolated from the cells and analyzed using an Agilent Bioanalyzer.
RNA was isolated from the cells and analyzed using an Agilent Bioanalyzer.

Data set [2] deals with A2780 ovarian cancer cells. Description: RNA disruption in drug-treated A2780 cells (Agilent Bioanalyzer electropherogram, RDI). It is filed as cell-based, human. Particulars: for response of cells in culture to the agent: dose- and time-dependent; for effect of caspase inhibitor on docetaxel-induced RNA disruption: 10 uM inhibitor with 0.2 uM docetaxel. As for the experimental part:
RNA was isolated from ovarian cancer cell line A2780 cells which had been treated with 10 μM docetaxel in 50% media or 20 μM epirubicin, each in 50% media. Cells were treated with the chemotherapeutic for 24 hours at 37° C. Isolated RNA was separated by microcapillary electrophoresis using the Agilent 2100 Bioanalyzer.
Cells were plated and treated with docetaxel concentrations ranging from 0.001-40 μM for 24 to 72 hours to assess the effect on cell number, RNA content, and integrity (measured using a Bioanalyzer 2100 from Agilent Technologies, Inc.).
A2780 cells treated for up to 72 hours with docetaxel at 0.005 uM and 0.2 uM, were analyzed for the amount of RNA per cell. RNA was isolated and electophoretically separated using an Agilent Bioanalyzer.
RNA was isolated and electrophoretically separated on an Agilent Bioanalyzer. As shown in FIG. 24D bands appeared just below the 28S (e.g. intermediate) and 18S bands (e.g. low banding region) at 0.005 uM and peaked at 0.2 uM.
A time course experiment was conducted in A2780 cells. Cells were treated for up to 72 hours with docetaxel at 0.005 uM and 0.2 uM. RNA was isolated and run on an Agilent Bioanalyzer.
The effect of a caspase inhibitor on RNA integrity changes was next assessed. Cells were treated with or without docetaxel at a concentration of 0.2 uM in the presence or absence of the caspase inhibitor Q-DEVD-OPH (Biovision Laboratories) at a concentration of 10 uM.

The test system of data set [3] is Colon adenocarcinoma cells SW480. As to the kind of experiment: RNA disruption in colon adenocarcinoma cells SW480. The format is cell-based. Particulars: 72 hr. As for the experimental part: Colon adenocarcinoma cells SW480 were incubated with Epirubicin, a DNA synthesis inhibitor. RNA was isolated from the cells and analyzed using an Agilent Bioanalyzer.
For data set [4] the following is noted: cited from earlier work.
The subject of data set [5] is locally advanced breast cancer. Description: Immunohistochemistry of tumour markers (Ki67, CD31, p53, bcl-2, caspase 3) before and 14 days after single-dose ZA, Group 1. The format is in vivo, human. The protocol:
Enrolled patients received 4 mg single dose of ZA (Zometa®, Novartis, Milan, Italy) before starting any treatment (biological window of 14 days) (FIG. 9). Markers of tumor proliferation/death were tested immunohistochemically and at ATP and RNA level in tumour specimens obtained before and after ZA administration in those patients with locally advanced breast cancer (Group 1) and the count of circulating tumour cells (CTCs) by CellSearch System along with serological markers as marker of tumor dissemination were carried out in metastatic patients (Group 2).
(§1) In patients with locally advanced disease, the biological evaluations were performed at baseline on the diagnostic biopsy and repeated after 14 days from ZA administration on a second tru-cut biopsy (Group 1) whereas in patients with bone metastatic disease, CTCs counts along with serological markers were performed before ZA administration, at 48 hours and at 14 days after treatment (Group 2) (FIG. 9).
Immunohistochemical evaluation was performed on formalin-fixed paraffin-embedded tumor samples obtained at diagnosis and at 14th days on tru-cut. ER, PgR, overexpression of HER2 and Ki67, CD31 with p53 and bcl-2 staining were performed at the Pathology Unit of the Azienda Ospedaliera-Istituti Ospitalieri of Cremona (Italy). The immunohistochemical methodology is fully described elsewhere. The Caspase 3 immunohistochemistry was performed at the Pathology Unit of Peter MacCallum Cancer Centre (Australia); the used methodology followed that reported by others evaluating protein expression in breast tumours.

For data set [6], the system named is breast cancer T2-4, N 0-1, M0. As to the kind of experiment: Early response studies: RNA Disruption (RDI) 15 days after initiation of therapy. It is filed as in vivo, human. From the text: The Limit of Detection for RDI s RDI=0.3. RDI=1.5, 5 times the Level of Detection, was used as a provisional baseline cut off between nonresponders and responders.
In data set [7] the test system is cytokeratin 18 (M30, M65). As to the kind of experiment: M30/M65 Apoptosense assay, Group 2. The format is in vivo, human. Particulars: 14 days after ZA; baseline 335.3 U/L; p=0.039. The protocol: Blood samples were collected from patients at the same time-point as indicated for Group 2 into the K2EDTA anticoagulant tubes, and then centrifuged at 1,500 g for 10 min to obtain plasma. Levels of M30 and M65 were measured in blood samples drawn at 8 am before starting ZA administration and thereafter at 48 hours and at 14 days after the initial treatment (FIG. 9).
M30 and M65 measurements were tested in triplicate accordingly to the manufacturers' instructions (PEVIVA AB, Bromma, Sweden) as previously described in detail.
The M30 is a biomarker assay for the quantitative determination of caspase-cleaved cytokeratin 18 (CK18) released from apoptotic carcinoma cells into blood and may estimate the tumour response to the treatment. Total CK18 (cleaved and non cleaved) is detected by M65. The levels of M30 and M65 were determined on blood samples of metastatic breast cancer patients (Group 2) collected at baseline, at 48 hours and at 14 days after ZA administration at the same time point of CTCs evaluation to assess apoptosis and cell death induced by the treatment. […] M65 levels were statistically significant higher after drug administration (14 days) when compared to the baseline (370.69 U/L versus 335.3 U/L; range 174.2-1646.5 versus 113.7-596.4; p=0.039).

Data set [8] has as its system locally advanced breast cancer. As to the kind of experiment: ATP content of tumour biopsies (ATPlite luminescence), Group 1. It is filed as in vivo, human. Particulars: tru-cut after ZA; 230.93 at incisional biopsy; 24 matched pairs; p=0.79. As for the experimental part: ATP content was assayed as previously described using a luminescence assay system (ATPlite, PerkinElmer) according to manufacturing instructions. Briefly, frozen tumor biopsies were minced and homogenized in ice-cold lysis solution provided with the kit using a homogenizer. Membranes and cellular debris were eliminated by centrifuging at 12,000×g for 10 min at 4° C. Protein concentrations were determined by DC protein-assay (Bio-Rad Laboratories). Equal amounts of tissue proteins from each sample (30 μg/50 μl of lysis solution) were incubated with 50 μl of luciferine/luciferase substrate solution and analyzed for ATP content by using a Luminescence Counter (Enspire, PerkinElemer). ATP concentrations were calculated on the basis of an ATP standard-curve and expressed as pmol/mg protein.
(In general: Cellular ATP, detected with luciferase, serves as a proxy for viable cell number.)

Data set [9] can be described thus: Treatment tolerability of single-dose ZA. The format is in vivo, human. As for the experimental part:
as §1, with “Patients received a single dose of 4 mg diluted in 100 ml saline, intravenously, in about 15 mins of ZA without any other active concomitant treatments (i.e chemotherapy or endocrine therapy) (Groups 1 and 2). In” for “In”
Patients were evaluated by physical examination, and blood samples were obtained for laboratory analysis.

Data set [10] deals with locally advanced breast cancer. Description: RNA Disruption Index (RDI) of tumour samples before and 14 days after ZA, Group 1. It is filed as in vivo, human. Particulars: 14 days after single ZA; baseline 0.63; 14 matched pairs; p<0.0076. As for the experimental part: Tumour samples were shipped in a RNA preservative to Rna Diagnostics (Sudbury, Canada) where they were sub-sectioned to reduce the amount of tissue for RNA isolation based on gross pathology. RNA was then isolated using the Qiagen miRNeasy kit from each portion of the tumour and the RNA analysed using an Agilent Bioanalyzer 2100. […] Mean RDI values were calculated for each tumour sample.

Data set [11] deals with circulating tumour cells (CTCs). Description: Circulating tumor cells (CTCs) assay, CellSearch, Group 2. It is filed as in vivo, human. Particulars: for median CTC/M30+ve: basal 2. The protocol: as §1, with “Patients received a single dose of 4 mg diluted in 100 ml saline, intravenously, in about 15 mins of ZA without any other active concomitant treatments (i.e chemotherapy or endocrine therapy) (Groups 1 and 2). In” for “In”
The enumeration of CTC in whole blood was done by the CellSearch System according to manufacturers instruction as described by Cristofanilli et al.. The identification and count of CTCs was performed using the CellSearch Analyzer, a semi-automated fluorescence-based microscopy system that permits computer-generated reconstruction of cellular images. The criteria used are round or oval morphology, a DAPI positivity, positivity for cytokeratin and negative staining for CD45. Results are expressed as number of cells/7.5 ml of blood. Quality control was maintained via the CellSearch CTC Control Kit used to standardize reagents, instruments, and operator technique.
To quantify the fraction of apoptotic CTC, M30-positive CTC were detected integrating CTC assay with a specific mAb (M30 PEVIVA AB, Bromma, Sweden), recognizing the M30 neoepitope of cytokeratin 18 (CK18), analyzed with the fourth filter of the CellSearch System; results were expressed as the total number of CTC and M30-positive CTC per 7.5 mL of blood as described elsewhere.

Data set [12] relates to docetaxel-resistant A2780DXL cells. Description: Clonogenic assay, docetaxel-resistant cells. The format is cell-based. Particulars: clonogenic assay. An excerpt:
(§2) A docetaxel A2780 resistant cell line was made as described in Li et al., Int. J. Mol. Med 2004 14(20): 257-264.
RDA like clonogenic assays can be used to identify drugs that are cytotoxic (FIG. 24C iv). […] The cell lines have widely differing sensitivity to docetaxel in a clonogenic assay, with IC50 values differing by over three orders of magnitude.

For data set [13] the test system is unchanged. Description: RNA disruption in docetaxel-resistant cells. The format is cell-based. Particulars: in combination with docetaxel. The protocol: as §2
A time course experiment was conducted. Sensitive parental and docetaxel resistant A2780 cells were treated with docetaxel for 24 hours. RNA was isolated and run on an Agilent Bioanalyzer.
The a\Ability of RDA to detect potentiators of docetaxel (Dxl) sensitivity. […] Thus, RDA may be used to screen for potentiators of chemotherapy drug cytotoxicity.

Some results are limits rather than exact numbers.

As for `CCN(CC)CCNC(=O)c1c(C)[nH]c(/C=C2\C(=O)Nc3ccc(F)cc32)c1C` [Sunitinib], the “concentration at which RNA Disruption is evident” value in data set [1] was 54 mM.
Regarding `N.N.O=C([O-])C1(C(=O)[O-])CCC1.[Pt+2]` [carboplatin], the “response of cells in culture to the agent” value (“response of cells in culture” for short) in [2] is listed as “RNA disruption”.
`COc1cccc2c1C(=O)c1c(O)c3c(c(O)c1C2=O)C[C@@](O)(C(=O)CO)C[C@@H]3O[C@H]1C[C@H](N)[C@@H](O)[C@H](C)O1` [epirubicin]: the “concentration at which RNA Disruption is evident” value in data set [3] is recorded as 0.5 mM. The electropherogram pattern result in [2] (20 μM in 50% media, 24 hours, 37° C.) is “intermediate bands between the 18S and 28S peaks”. Also, the “response of cells in culture” value in data set [2] is “RNA disruption”.
As for `O=P(O)(O)C(O)(Cn1ccnc1)P(=O)(O)O` [ZA, zoledronic acid], in data set [4] (24 h post-dose), the “plasma concentration relative to Cmax” value is < 1 % of Cmax. In addition, the “dose retained in the skeleton or in fat tissue” value in data set [4] (in vivo) is reported as 60%. For the same compound, the “dose excreted unmetabolized in the urine” value in [4] (within 24 hours after administration) was “up to 41%”. Moreover, in data set [5] (1 of 31), the “specimens with increased bcl-2” value is listed as 3.2% and the “specimens with increased p53” value came out at 3.2%. Besides, in data set [5] (3 of 31), the “specimens with decreased p53” value was 9.7%. Further, the “patients with stable Ki67 expression” value in data set [5] (5 of 33 patients, 14 days) came out at 15.2%. Besides, the “patients with increase in Ki67 expression” value in data set [5] (6 of 33 patients, 14 days) amounted to 18.2%. The “patients with decrease in Ki67 expression” value in data set [5] (22 of 33 patients, 14 days) worked out at 66.6%. Moreover, the “specimens with unchanged p53” value in [5] (27 of 31) was 87.1%. The “specimens with decreased bcl-2” value in [5] (30 of 31) was found to be 96.8%. The “median Ki67” value in [5] (14 days after ZA infusion, basal 18%, n=33, p=0.0032) is given as 16%. Besides, the “bcl-2 expression (median)” value in data set [5] (14 days, baseline 100%, p<0.00001) is 40%. In addition, the “median CD31 expression” value in [5] (after treatment (14 days), basal 27%, p=0.0001) stood at 16%. Also, in data set [6], the “Patients Responding (RDI above Baseline RDI = 1.5)” value is 8 patients and the “RDI Range, Responding Patients” value is reported as 1.8-8.9. This compound also had an M65 level in [7] of 370.69 U/L. In addition, the “average ATP value” in data set [8] is 216.57 pmol/mg protein. Besides, in [9] (in vivo), the “levels of bone-turnover markers (calcium, PTH, BALP, VIT-D3(1-25))” value is reported as “did not lead significant difference” and the “osteonecrosis of the jaw or other significant adverse events” value was “No patient developed”. In addition, the tolerability result in data set [9] (single 4 mg i.v. dose) is “well tolerated”. Further, the “mean serum creatinine level” value in [9] (with treatment) is “did not vary”. This compound gave an RDI level in [10] of 1.21. The “median alive CTC” value in [11] (48 hours after ZA infusion, basal 12, p=0.0012) is 4 cells/7.5 ml of blood. For the same compound, in data set [11] (48 hours, p=0.7065), the “median CTC/M30+ve” value is recorded as 2 cells/7.5 ml of blood. In data set [11] (14 days, p=0.018), the “median CTC/M30+ve” value was 3 cells/7.5 ml of blood.
As to Q-DEVD-OPH, the “effect of caspase inhibitor on docetaxel-induced RNA disruption” value was “reduces the loss of 28S and 18S bands at 72 hr” in [2]; “significantly reduced RNA disruption” in data set [2] (listed as Q-DEVD-Oph).
Consider `CC(=O)O[C@H]1C(=O)[C@@]2(C)[C@H]([C@H](OC(=O)c3ccccc3)[C@]3(O)C[C@H](OC(=O)[C@H](O)[C@@H](NC(=O)c4ccccc4)c4ccccc4)C(C)=C1C3(C)C)[C@]1(OC(C)=O)CO[C@@H]1C[C@@H]2O` [paclitaxel], for which the “response of cells in culture” value in data set [2] was “RNA disruption”.
For the compound Cyclosporine A, the “effect on docetaxel sensitivity” value in data set [12] is “restores sensitivity to docetaxel”. Further, the “effect on docetaxel-induced RNA disruption (RDI)” value in [13] was “restored docetaxel's ability to induce RNA disruption”.
